In publication doi:10.1101/2024.08.19.608619, “Discovery of potent SARS-CoV-2 nsp3 macrodomain inhibitors uncovers lack of translation to cellular antiviral response” (bioRxiv, 2024):
Values joined by “and” are separate entries in the source; they are usually repeats but may differ in a detail not shown here. Identical values can stand only once.

Columns and labels:
[1] = In vitro mouse hepatocyte stability; assay type: in vitro ADME
Text: (§1) Supplement media-1.zip/Hepatocyte_Stability.csv, table | column: clint; t_half

[2] = tested on: MERS-CoV; experiment: microbe, parasite or virus in culture; assay type: cell-based; settings: Vero E6/TMPRSS2 MERS-CoV antiviral effect with P-gp inhibitor; for perc_max_measured: maximum measured response of dose series; for EC90: read-out: ec90
[3] = In vitro human hepatocyte stability; assay type: in vitro ADME
Text: as §1

[4] = tested on: NMDA; experiment: In vitro CEREP profiling, NMDA (antagonist radioligand); assay type: binding; settings: test compound concentration 10 uM
Text: (§2) Supplement media-1.zip/Safety_Panel_Profile.csv, table | column: perc_inhibition

[5] = Protein binding; assay type: in vitro ADME
Text: Supplement media-1.zip/Protein_Binding.csv, table | column: fu; perc_bound; perc_free; perc_recovered

[6] = tested on: KV channel; experiment: In vitro CEREP profiling, KV channel (antagonist radioligand); assay type: binding; settings: test compound concentration 10 uM
Text: as §2

[7] = target: T1, PDE4D2 (h) (Homo sapiens, UniProt Q08499); experiment: In vitro CEREP profiling, PDE4D2 (h); assay type: biochemical; settings: test compound concentration 10 uM; Enzyme and Cell-based assays
T1 construct: purchased Eurofins Cerep (SafetyScreen44), recognised from the panel format
Text: as §2

[8] = target: T2, H1 (h) (Homo sapiens, UniProt P35367); experiment: In vitro CEREP profiling, H1 (h) (antagonist radioligand); assay type: binding; settings: test compound concentration 10 uM
T2 construct: purchased Eurofins Cerep (SafetyScreen44), recognised from the panel format
Text: as §2

[9] = In vitro dog liver microsomal stability; assay type: in vitro ADME
Text: Supplement media-1.zip/Hepatic_Microsomal_Stability.csv, table | column: clint; t_half

[10] = target: T3, mu (MOP) (h) (Homo sapiens, UniProt P35372); experiment: In vitro CEREP profiling, mu (MOP) (h) (agonist radioligand); assay type: binding; settings: test compound concentration 10 uM
T3 construct: purchased Eurofins Cerep (SafetyScreen44), recognised from the panel format
Text: as §2

[11] = tested on: AR(h); experiment: In vitro CEREP profiling, AR(h) (agonist radioligand); assay type: binding, human; settings: test compound concentration 10 uM
Text: as §2

[12] = target: T4, MAO-A (Rattus norvegicus, UniProt P21396); experiment: In vitro CEREP profiling, MAO-A (antagonist radioligand); assay type: binding; settings: test compound concentration 10 uM
T4 construct: purchased Eurofins Cerep (SafetyScreen44), recognised from the panel format
T4 sequence (P21396 1-526): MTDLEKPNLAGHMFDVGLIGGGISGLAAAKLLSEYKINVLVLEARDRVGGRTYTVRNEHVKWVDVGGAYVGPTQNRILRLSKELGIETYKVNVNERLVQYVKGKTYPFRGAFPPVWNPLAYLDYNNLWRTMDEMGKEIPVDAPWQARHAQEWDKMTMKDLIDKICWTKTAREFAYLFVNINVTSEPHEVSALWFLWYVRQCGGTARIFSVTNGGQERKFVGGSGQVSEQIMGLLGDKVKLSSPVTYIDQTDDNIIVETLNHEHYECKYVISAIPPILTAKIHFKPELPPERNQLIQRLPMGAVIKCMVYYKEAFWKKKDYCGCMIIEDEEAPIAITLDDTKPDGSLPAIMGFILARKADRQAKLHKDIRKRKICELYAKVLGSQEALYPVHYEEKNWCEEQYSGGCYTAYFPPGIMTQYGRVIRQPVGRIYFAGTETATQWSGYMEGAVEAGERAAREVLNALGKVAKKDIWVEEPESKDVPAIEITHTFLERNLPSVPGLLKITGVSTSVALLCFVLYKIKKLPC
Text: as §2

[13] = target: T5, ETA (h) (Homo sapiens, UniProt P25101); experiment: In vitro CEREP profiling, ETA (h) (agonist radioligand); assay type: binding; settings: test compound 10 uM
T5 construct: purchased Eurofins Cerep (SafetyScreen44), recognised from the panel format
T5 sequence (P25101 21-427): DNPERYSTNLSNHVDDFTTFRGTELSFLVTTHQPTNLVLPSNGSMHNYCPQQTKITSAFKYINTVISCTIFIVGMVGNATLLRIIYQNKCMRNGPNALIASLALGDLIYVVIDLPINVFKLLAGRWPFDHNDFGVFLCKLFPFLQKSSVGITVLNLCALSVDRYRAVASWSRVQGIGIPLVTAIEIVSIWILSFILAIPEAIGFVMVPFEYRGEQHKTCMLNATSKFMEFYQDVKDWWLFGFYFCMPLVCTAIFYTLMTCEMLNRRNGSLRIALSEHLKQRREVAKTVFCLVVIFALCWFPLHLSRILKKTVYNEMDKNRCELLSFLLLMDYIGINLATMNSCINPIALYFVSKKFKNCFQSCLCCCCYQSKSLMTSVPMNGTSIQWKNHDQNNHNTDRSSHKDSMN
Text: as §2

[14] = Hepatic microsomal stability, HLM; assay type: in vitro ADME, human; settings: In vitro human liver microsomal stability
[15] = target: T6, norepinephrine transporter (h) (Homo sapiens, UniProt P23975); experiment: In vitro CEREP profiling, norepinephrine transporter (h) (antagonist radioligand); assay type: binding; settings: test compound concentration 10 uM
T6 construct: purchased Eurofins Cerep (SafetyScreen44), recognised from the panel format
Text: as §2

[16] = tested on: Ca2+ channel (L, dihydropyridine site); experiment: In vitro CEREP profiling, Ca2+ channel (L, dihydropyridine site) (antagonist radioligand); assay type: binding; settings: test compound concentration 10 uM
Text: as §2

[17] = target: T7, V1a (h) (Homo sapiens, UniProt P37288); experiment: In vitro CEREP profiling, V1a (h) (agonist radioligand); assay type: binding; settings: test compound concentration 10 uM
T7 construct: purchased Eurofins Cerep (SafetyScreen44), recognised from the panel format
Text: as §2

[18] = In vitro dog plasma protein binding
[19] = In vitro fetal calf serum protein binding
[20] = In vitro human plasma protein binding
[21] = In vitro mouse plasma protein binding
[22] = In vitro rat plasma protein binding

T6 sequence (P23975 whole entry): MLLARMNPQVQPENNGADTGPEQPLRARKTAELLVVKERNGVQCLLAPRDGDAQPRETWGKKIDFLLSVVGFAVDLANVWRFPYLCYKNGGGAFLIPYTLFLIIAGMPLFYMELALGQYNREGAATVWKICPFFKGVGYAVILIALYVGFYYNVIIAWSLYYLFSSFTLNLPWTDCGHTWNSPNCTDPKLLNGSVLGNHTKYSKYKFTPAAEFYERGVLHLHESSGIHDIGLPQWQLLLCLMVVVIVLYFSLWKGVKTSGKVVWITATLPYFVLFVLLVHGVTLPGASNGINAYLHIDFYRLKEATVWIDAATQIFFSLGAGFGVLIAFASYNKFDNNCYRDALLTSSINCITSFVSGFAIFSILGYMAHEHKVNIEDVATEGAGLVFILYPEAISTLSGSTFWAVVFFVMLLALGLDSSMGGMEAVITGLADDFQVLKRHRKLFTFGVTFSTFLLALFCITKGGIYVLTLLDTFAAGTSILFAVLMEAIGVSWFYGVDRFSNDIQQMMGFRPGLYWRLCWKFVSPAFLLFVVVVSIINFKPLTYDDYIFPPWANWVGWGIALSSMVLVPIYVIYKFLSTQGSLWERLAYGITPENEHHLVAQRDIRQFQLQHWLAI
T7 sequence (P37288 whole entry): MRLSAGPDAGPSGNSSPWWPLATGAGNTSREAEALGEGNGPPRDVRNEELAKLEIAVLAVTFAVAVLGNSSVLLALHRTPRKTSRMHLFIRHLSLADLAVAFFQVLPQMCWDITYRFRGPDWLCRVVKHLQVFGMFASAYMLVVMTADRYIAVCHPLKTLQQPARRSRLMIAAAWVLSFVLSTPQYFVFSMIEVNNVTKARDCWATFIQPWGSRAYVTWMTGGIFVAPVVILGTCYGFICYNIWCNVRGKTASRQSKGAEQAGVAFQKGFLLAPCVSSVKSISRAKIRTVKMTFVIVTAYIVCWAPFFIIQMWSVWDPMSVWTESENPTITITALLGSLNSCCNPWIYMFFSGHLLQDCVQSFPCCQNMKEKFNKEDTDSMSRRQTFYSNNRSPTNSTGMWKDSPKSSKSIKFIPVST
T3 sequence (P35372 whole entry): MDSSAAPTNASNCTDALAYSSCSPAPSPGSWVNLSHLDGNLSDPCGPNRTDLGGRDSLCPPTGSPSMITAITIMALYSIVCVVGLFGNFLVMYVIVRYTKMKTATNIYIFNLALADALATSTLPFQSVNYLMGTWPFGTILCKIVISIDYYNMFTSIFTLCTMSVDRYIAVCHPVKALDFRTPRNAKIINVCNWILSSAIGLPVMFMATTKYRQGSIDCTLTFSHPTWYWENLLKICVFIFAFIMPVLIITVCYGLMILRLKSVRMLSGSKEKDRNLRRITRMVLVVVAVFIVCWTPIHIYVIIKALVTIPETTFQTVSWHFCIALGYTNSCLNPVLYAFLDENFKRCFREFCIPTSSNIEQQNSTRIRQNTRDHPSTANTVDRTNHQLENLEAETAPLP
T1 sequence (Q08499 303-809): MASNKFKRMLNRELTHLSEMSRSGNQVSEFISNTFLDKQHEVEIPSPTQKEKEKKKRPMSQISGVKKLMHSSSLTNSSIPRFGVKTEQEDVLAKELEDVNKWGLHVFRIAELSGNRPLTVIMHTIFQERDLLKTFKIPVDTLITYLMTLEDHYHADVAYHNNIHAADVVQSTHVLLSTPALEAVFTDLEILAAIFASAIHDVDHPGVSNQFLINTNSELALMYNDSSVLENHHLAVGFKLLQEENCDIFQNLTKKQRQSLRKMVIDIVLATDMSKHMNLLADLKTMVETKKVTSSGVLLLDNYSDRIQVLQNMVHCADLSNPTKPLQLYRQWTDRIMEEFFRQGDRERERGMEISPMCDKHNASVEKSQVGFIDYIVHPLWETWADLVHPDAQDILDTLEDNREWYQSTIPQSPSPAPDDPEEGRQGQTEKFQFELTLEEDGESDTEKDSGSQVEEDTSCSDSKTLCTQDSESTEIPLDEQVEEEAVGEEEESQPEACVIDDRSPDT
T2 sequence (P35367 whole entry): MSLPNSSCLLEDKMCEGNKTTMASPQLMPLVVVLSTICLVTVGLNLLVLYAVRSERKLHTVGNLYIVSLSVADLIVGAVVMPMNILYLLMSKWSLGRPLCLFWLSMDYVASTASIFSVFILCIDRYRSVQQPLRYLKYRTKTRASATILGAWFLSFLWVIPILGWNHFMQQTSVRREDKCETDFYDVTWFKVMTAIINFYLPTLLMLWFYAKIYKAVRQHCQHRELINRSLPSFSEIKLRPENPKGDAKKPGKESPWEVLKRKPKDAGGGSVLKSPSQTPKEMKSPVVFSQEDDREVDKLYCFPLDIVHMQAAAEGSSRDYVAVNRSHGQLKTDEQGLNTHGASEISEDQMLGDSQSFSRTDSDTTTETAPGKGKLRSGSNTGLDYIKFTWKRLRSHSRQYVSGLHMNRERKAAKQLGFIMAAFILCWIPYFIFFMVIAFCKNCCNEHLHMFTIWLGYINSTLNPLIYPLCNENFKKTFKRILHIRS

CC(C)[C@H](Nc1ncnc2[nH]ccc12)c1ccc2c(c1)S(=O)(=O)CCC2 [ASAP-0008674]
clint [1]: 567.0 uL/min/1E6 cells | t_half [1]: 1.22 min | perc_max_measured [2]: 131.878% and 83.309% and 125.339% | EC90 [2]: > 5 µM | clint [3]: 27.9 uL/min/1E6 cells | t_half [3]: 24.8 min | perc_inhibition (% inhibition of the binding of a ligand specific for each target) [4]: -1% | fu [5, 18]: 0.148 | perc_bound [5, 18]: 85.2% | perc_free [5, 18]: 14.8% | perc_recovered [5, 18]: 97.58% | fu [5, 19]: 0.095 | perc_bound [5, 19]: 90.5% | perc_free [5, 19]: 9.5% | perc_recovered [5, 19]: 94.23% | fu [5, 20]: 0.144 | perc_bound [5, 20]: 85.6% | perc_free [5, 20]: 14.4% | perc_recovered [5, 20]: 95.79% | fu [5, 21]: 0.124 | perc_bound [5, 21]: 87.6% | perc_free [5, 21]: 12.4% | perc_recovered [5, 21]: 89.46% | fu [5, 22]: 0.189 | perc_bound [5, 22]: 81.1% | perc_free [5, 22]: 18.9% | perc_recovered [5, 22]: 91.14% | perc_inhibition (% inhibition of the binding of a ligand specific for each target) [6]: -10% | perc_inhibition: % inhibition of control enzyme activity, PDE4D2 (h) [7]: 36% | perc_inhibition (% inhibition of the binding of a ligand specific for each target) [8]: -3% | clint [9]: 14.3 µL/min/mg | t_half [9]: 48.5 min | perc_inhibition (% inhibition of the binding of a ligand specific for each target) [10]: 8% | perc_inhibition (% inhibition of the binding of a ligand specific for each target) [11]: 0% | perc_inhibition (% inhibition of the binding of a ligand specific for each target) [12]: 7% | perc_inhibition (% inhibition of the binding of a ligand specific for each target) [13]: -1% | clint [14]: 57.0 µL/min/mg | perc_remaining [14]: 37.0% | t_half [14]: 29.5 min | perc_remaining_no_cofactor ([14]; no cofactor): 92.0% | perc_inhibition (% inhibition of the binding of a ligand specific for each target) [15]: -3% | perc_inhibition (% inhibition of the binding of a ligand specific for each target) [16]: 12% | perc_inhibition (% inhibition of the binding of a ligand specific for each target) [17]: 6%

CC(C)[C@@H](Nc1ncnc2[nH]c(-c3cnn(C)c3C#N)cc12)c1ccc2c(n1)OCCO2 [ASAP-0010716]
clint [1]: 217.0 uL/min/1E6 cells | t_half [1]: 3.19 min | perc_max_measured [2]: 144.33% and 125.176% | perc_min_measured ([2]; minimum measured response of dose series): 55.976% and 101.272% | EC50 ([2]; read-out: ec50): > 5 µM | EC90 [2]: > 5 µM | clint [3]: 182.0 uL/min/1E6 cells | t_half [3]: 3.81 min | perc_inhibition (% inhibition of the binding of a ligand specific for each target) [4]: 1% | fu [5, 18]: 0.029 | perc_bound [5, 18]: 97.1% | perc_free [5, 18]: 2.93% | perc_recovered [5, 18]: 91.53% | fu [5, 19]: 0.038 | perc_bound [5, 19]: 96.2% | perc_free [5, 19]: 3.84% | perc_recovered [5, 19]: 96.46% | fu [5, 20]: 0.005 | perc_bound [5, 20]: 99.5% | perc_free [5, 20]: 0.507% | perc_recovered [5, 20]: 111.8% | fu [5, 21]: 0.027 | perc_bound [5, 21]: 97.3% | perc_free [5, 21]: 2.67% | perc_recovered [5, 21]: 94.71% | fu [5, 22]: 0.022 | perc_bound [5, 22]: 97.8% | perc_free [5, 22]: 2.16% | perc_recovered [5, 22]: 100.0% | perc_inhibition (% inhibition of the binding of a ligand specific for each target) [6]: 2% | perc_inhibition: % inhibition of control enzyme activity, PDE4D2 (h) [7]: 44% | perc_inhibition (% inhibition of the binding of a ligand specific for each target) [8]: 0% | clint [9]: 23.2 µL/min/mg | t_half [9]: 29.8 min | perc_inhibition (% inhibition of the binding of a ligand specific for each target) [10]: 77% | perc_inhibition (% inhibition of the binding of a ligand specific for each target) [11]: 12% | perc_inhibition (% inhibition of the binding of a ligand specific for each target) [12]: 8% | perc_inhibition (% inhibition of the binding of a ligand specific for each target) [13]: 5% | perc_inhibition (% inhibition of the binding of a ligand specific for each target) [15]: 4% | perc_inhibition (% inhibition of the binding of a ligand specific for each target) [16]: 10% | perc_inhibition (% inhibition of the binding of a ligand specific for each target) [17]: 20%
